# Measurements as given in patent US20260216374A1, “POU5F1B INHIBITORS” (ECOLE POLYTECHNIQUE FEDERALE DE LAUSANNE (EPFL), priority 2023, published 2026).
# “Also recorded” adds a separate entry of the source. Residues, ends and D or L forms follow the SMILES beside them. *: point of attachment. Cbz = O=C(OCc1ccccc1)*
# What was measured:
# Format in all cases: cell-based, human
# POU5F1B [1] = experiment: Radiolabelling pulse-chase experiment to determine POU5F1B half-life; details: POU5F1B-overexpressing SW480 cells; ROCK inhibitors 20 μM 24 hours; MG132 10 μM 3 hours
# Procedure: Radiolabelling experiment to determine POU5F1B half-life. POU5F1B-overexpressing SW480 cells treated for 24 hours with capivasertib (20 μM), oxa-06 (20 μM) and Y-27632 (20 μM) ROCK inhibitors, and 3 hours with MG132 (10 μM) proteasome inhibitor, were washed with methionine/cysteine-free medium, incubated for a 20-min pulse at 37° C. with 50 μCi/ml [35S]methionine/cysteine (Hartman Analytics), washed, and further incubated for different times at 37° C. in complete medium with a 10-fold excess of nonradioactive methionine and cysteine. POU5F1B protein was HA-immunoprecipitated, eluted and loaded in SDS-PAGE gels, and autoradiographies were quantified using the Typhoon Imager (Image QuantTool, GE healthcare).
# POU5F1B [2] = experiment: Immunoprecipitation of HA-tagged POU5F1B followed by Western blot with phosphoserine-specific antibody; details: HA-tagged POU5F1B overexpressed in SW480 cells
# Procedure: Immunoprecipitation. Cells were washed three times PBS, lysed 30 min at 4° C. in the following Buffer (0.5% Nonidet P-40, 500 mM Tris pH 7.4, 20 mM EDTA, 10 mM NaF, 2 mM benzamidin and protease inhibitor cocktail (Roche)), and centrifuged 3 min at 5000 rpm. Supernatants were subjected to preclearing with mouse IgG-agarose beads (Sigma A0919) prior immunoprecipitation reaction. Supernatants were incubated overnight with anti HA-agarose beads (Sigma A2095). Similar elution volumes and protein quantities, for the IPs and the inputs, respectively, were submitted to SDS-PAGE and analyzed by immunoblotting using anti-ubiquitin […] (Santa Cruz Biotechnology sc-8017, 1:1,000), HRP-conjugated anti-HA (clone 3F10 Roche 12013819001, 1:1,000), anti-phosphoserine ([…], Sigma) and HRP-conjugated anti-mouse antibody.
# POU5F1B-DCK = experiment: Dose response assay, BVdU survival of POU5F1B-DCK-overexpressing SW480 cells (POU5F1B-DCK degradation); details: 0.39-25 μM compound, 500 μM BVdU, reading at 96 h and 120 h
# Procedure: Dose response assays. POU5F1B-DCK-, DCK-overexpressing, and wild type SW480 cells were seeded in 96-well plates at a cell density of 2,000 cells/well in 100 μl of media. At the same time of cell seeding, 100 μM Capivasertib, OXA-06 and Laurocapram dissolved in DMSO were diluted in medium and 20 μl were dispensed in the 96-wells to achieve final concentrations of 0.39, 0.78, 1.56, 3.12, 6.25, 12.5 and 25 μM, keeping the final concentration of DMSO at 0.2% in each well. The next day, 500 μM BVdU (Brivudine H27853, Thermo Fisher) was added in all wells except for non-treated ones. Plate reading was done at 96 h and 120 h post BvDU treatment by measuring fluorescence after incubating the cells with PrestoBlue™ (A13262, Invitrogen) for 30 min.
# POU5F1B [3] = experiment: Immunofluorescence of HA-tagged POU5F1B localization in SW480 cells; details: TAK-243 at 1 μM for 5 hours
# Procedure: Immunofluorescence. Cell lines were plated on glass coverslips into 24-well plates and cultured for 3 days up to 70% confluence in 500 ng ml^−1 doxycycline-containing medium. When needed, cells were treated with TAK-243, inhibitor of the ubiquitin activating enzyme, at 1 μM for 5 hours. Growth medium was refreshed (1 ml) prior a 15 min fixation with 1 ml 8% paraformaldehyde (PFA) added dropwise. Cells were washed three times with PBS, permeabilized with 0.1% saponin PBS for 20 min, and blocked with 1% BSA 0.1% saponin PBS for 30 min before incubation with anti-HA (bioLegend, Covance catalog #MMS-101P, 1:1,000) antibody in 1% BSA 0.1% saponin PBS 2 h at room temperature (RT) under agitation. Samples were washed three times with PBS and incubated with Alexa 647-conjugated (A647) anti-mouse antibody (1:1,000) in 1% BSA 0.1% saponin PBS for 40 min at RT. Three final washes were performed before mounting the slides in Vectashield with DAPI (Vector Laboratories). Images were acquired on a ZEISS LSM 700 confocal microscopy and analyzed with Fiji software.
SMILES,half-life of POU5F1B (pulse-chase) (POU5F1B [1]),wild type POU5F1B phosphoserine signal (POU5F1B [2]),"POU5F1B(-DCK) degradation, read as cell survival after BVdU treatment (POU5F1B-DCK)",POU5F1B subcellular localization (POU5F1B [3])
CC(C)C[C@@H](C=O)NC(=O)[C@H](CC(C)C)NC(=O)[C@H](CC(C)C)NC(=O)OCc1ccccc1 [MG132] (Cbz-Leu-Leu-Leu-aldehyde),stabilized,–,–,–
Fc1ccccc1CNCc1ccc(-c2ccnc3[nH]ccc23)cc1 [OXA-06],reduced,decreases,degraded,–
NS(=O)(=O)OC[C@H]1C[C@@H](Nc2ccnc3cc(-c4cccc(SC(F)(F)F)c4)nn23)[C@H](O)[C@@H]1O [TAK-243],–,–,–,triggers the re-localization of POU5F1B to the nucleus; also recorded: re-localization from the cytoplasm to the nucleus
C[C@@H](N)[C@H]1CC[C@H](C(=O)Nc2ccncc2)CC1 [Y-27632],reduced,decreases,–,–
NC1(C(=O)N[C@@H](CCO)c2ccc(Cl)cc2)CCN(c2nc[nH]c3nccc2-3)CC1 [capivasertib],reduced,decreases,degraded,–
CCCCCCCCCCCCN1CCCCCC1=O [laurocapram],–,–,degraded,–
